Experimental data from US9884891B2, “KISS1R receptor agonist compounds and use thereof for inducing ovulation in mammals” (INSTITUT NATIONAL DE LA RECHERCHE AGRONOMIQUE, priority 2013, dated 2018).
Read-outs that look alike come from different tables or passages of the source. Where a SMILES comes first, the peptide text is derived from it.

What was measured:
plasma LH concentration = experiment: In vivo activity test: plasma LH concentration in ewes after injection of the peptide compound; set-up: species or system ewes of the Ile de France breed; conditions: for increase in the plasma concentration of LH (% of Comp.1 maximum stimulation): FIG. 4
Protocol: The tests were carried out on ewes of the Ile de France breed, either in the anestrus period for the comparative compounds Comp.1 and Comp.3, or in the estrus period for the comparative compound Comp.1 and for the compounds in accordance with the invention C1, C4 and C6. The ewes used in the estrus period were pretreated with a vaginal sponge containing 20 mg of fluorogestone acetate (Chronogest CR sponge, Intervet) in order to block the secretion of LH and to stimulate a luteal phase.
Five days after the insertion of the sponge (for the animals in the estrus period) or the day before the test (for the animals in the anestrus period), a catheter was inserted into the jugular vein of the animal. On the day of the test, the peptide compound to be tested was injected into the catheter, at the desired dose (5 nmol/ewe), diluted in 1 ml of physiological solution. Physiological saline containing heparin (3 ml) was injected immediately after the peptide compound in order to rinse the catheter and to carry all of the compound into the animal's bloodstream.
A negative control (T) consisting of physiological solution alone was also carried out.
Before and following the injection of the test compound, blood samples were taken at variable intervals between 10 min and 1 h, for a period of between 3 h and 30 h.
The blood samples were centrifuged, and the plasma was stored at −20° C. until it was used to measure the LH concentration, according to an RIA method described in the literature (Caraty et al., 2007).
The tests were carried out on ewes of the Ile de France breed in the anestrus period, in the same way as above with reference to the 1st experiment (without any treatment with progesterone). In particular, for all the animals, the day before the test, a catheter was inserted into the jugular vein of the animal. On the day of the test, the peptide compound to be tested was injected into the catheter, at the desired dose (5 nmol/ewe), diluted in 1 ml of physiological solution.
The tests were carried out on ewes of the Ile de France breed in the anestrus period, as indicated above with reference to the 1st experiment (without any treatment with progesterone). In particular, for all the animals, the day before the test, a catheter was inserted into the jugular vein of the animal. On the day of the test, the peptide compound to be tested was injected into the catheter, at the desired dose, diluted in 1 ml of physiological solution. For each compound, the following three doses were tested: 1 nmol/ewe, 5 nmol/ewe and 15 nmol/ewe. […]
Before and following the injection of the test compound, blood samples were taken at variable intervals between 10 min and 1 h, for a period of 10 h.
The blood samples were centrifuged, and the plasma was stored at −20° C. until it was used to measure the LH concentration, according to the RIA method described in the literature (Caraty et al., 2007).

[1] = Test for proteolytic degradation of the peptide compounds in ovine serum; format: in vitro ADME, ewes of the Ile de France breed; conditions: for remaining at 3 h, 50 μM: female, Ile de France, sheep
Protocol: In order to carry out this test, blood was collected from the jugular vein of ewes of the Ile de France breed, and centrifuged. The supernatant (serum) was stored at −20° C. until use.
The degradation in this serum of the various peptide compounds in accordance with the invention and of the comparative peptide compounds is monitored over time. To this effect, each peptide compound to be analyzed and the internal calibrant (L-phenylalaninol) are dissolved in milliQ water (0.5 mM and 6.6 mM, respectively). The commercial protease inhibitor cocktail (Sigma, ref. P8340) is supplied in solution in DMSO.
The serum and the stock solutions of peptide compounds are preheated at 39° C. for 30 minutes. Each solution of peptide compound (50 μl, i.e. a final concentration in the serum of 50 μM) and the solution of internal calibrant (25 μl) are mixed with 425 μl of serum and incubated at 39° C. The proteolytic degradation kinetics of the compounds are monitored by taking a sample, at various given times, of 75 μl of the solution, which are diluted with 150 μL of acetonitrile in order to precipitate the serum proteins. The suspension obtained is centrifuged at 14 000 revolutions/min for 10 min at 4° C.
The amount of peptide compound intact after incubation is determined by integration of the area of the peak, using L-phenylalaninol as internal calibrant. It is expressed as % of the area of the peak at time t=0.
The value corresponding to 100% of intact peptide compound is obtained by mixing 420 μl of serum, 5 μl of the inhibitor cocktail and 25 μl of the phenylalaninol solution, followed by 50 μl of peptide compound, and then by immediately treating the resulting solution according to the protocol described above.

human KISS1R receptor = target: T1, human KISS1R receptor (Homo sapiens, UniProt Q969F8); experiment: Intracellular calcium mobilization test in HEK293A cells expressing human KISS1R; format: cell-based
T1 construct: expressed in transfected cells
T1 sequence (Q969F8 whole entry): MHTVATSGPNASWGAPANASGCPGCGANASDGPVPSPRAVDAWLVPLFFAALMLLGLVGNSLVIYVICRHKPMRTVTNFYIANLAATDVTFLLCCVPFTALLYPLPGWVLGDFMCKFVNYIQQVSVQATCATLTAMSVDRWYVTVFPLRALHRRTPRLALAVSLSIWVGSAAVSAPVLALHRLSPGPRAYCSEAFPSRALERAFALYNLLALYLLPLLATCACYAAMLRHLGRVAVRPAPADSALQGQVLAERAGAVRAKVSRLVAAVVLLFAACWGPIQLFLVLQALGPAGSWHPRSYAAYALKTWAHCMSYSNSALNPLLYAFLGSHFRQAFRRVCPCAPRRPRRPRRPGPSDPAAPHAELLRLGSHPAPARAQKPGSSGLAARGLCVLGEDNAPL
Source text: In order to carry out the in vitro tests for the activity of the peptide compounds in accordance with the invention and the comparative compounds, the HEK293A cell line (ATCC, American Type Culture Collection, Manassas, Va., USA) was stably transfected with the human KISS1R receptor (Genbank accession number: NM_032551). The pcDNA3.1 vector (Invitrogen, Cergy Pontoise, France), into which the sequence of human KISS1R has been inserted with a 5′ HA tag at position 957-2150 bp, was used for the transfection. The transfection and the selection of the clones were carried out as described in the literature (Mancini et al. 2009, and Invitrogen website).
In order to verify the agonist activity and to measure the EC50 of the peptide compounds according to the invention, the following protocol was carried out.
HEK293A cells expressing the human KISS1R receptor were seeded into a 96-well plate (μClear® black plate) at the concentration of 40 000 cells/well, and placed in an incubator at 37° C. After 48 hours, the medium was changed and the cells were incubated with the fluorescent dye Fluo-4NW, according to the instructions of the manufacturer (Molecular Probe).
After having measured the basal fluorescence, 5 μl of the 20× solution containing the test compound were added to each well (containing 95 μl) so as to obtain the desired concentration. The variations in fluorescence were recorded every 7 seconds for 5-7 minutes with a plate reader (PolarStar Optima, BMG Labtech). Activity-concentration curves were generated using the GraphPad Prism 5 software, and the EC50 of each compound was calculated by adjusting the curve to a sigmoid.

LH peak / ovulation = conditions: cited from earlier work
[2] = 1st experiment, ewes in the estrus period, 5 nmol/ewe intravenous
[3] = 2nd experiment, ewes in the anestrus period, 5 nmol/ewe intravenous, FIGS. 6a-6d
[4] = intravenous, ewes at the end of the follicular phase

With `CC(C)C[C@@H](C(=O)N[C@@H](CCCNC(=N)N)C(=O)N[C@@H](Cc1ccc(O)cc1)C(N)=O)n1cc(CNC(=O)[C@H](Cc2ccccc2)NC(=O)[C@H](CO)NC(=O)[C@H](CC(N)=O)NC(=O)[C@H](Cc2c[nH]c3ccccc23)NC(=O)[C@H](CC(N)=O)NC(=O)[C@@H](N)Cc2ccc(O)cc2)nn1` [Compound C1, H-Tyr-Asn-Trp-Asn-Ser-Phe-GlyΨ[Tz]Leu-Arg-Tyr-NH2] (HELM PEPTIDE1{Y.N.W.N.S.F.[CC(C)C[C@@H](C(=O)[*:2])n1cc(CN[*:1])nn1].R.Y.[am]}$$$$V2.0) the “increase in the plasma concentration of LH (% of Comp.1 maximum stimulation)” value (“increase … (% of Comp.1 maximum stimulation)” for short) (plasma LH concentration; [2]) was “more active than the comparative compounds Comp.1 and Comp.3” and the “duration of action (LH concentration over time)” value (plasma LH concentration; [3]) was “sustained for longer over time than the comparative compounds Comp.1 and Comp.3”.

In the case of `CC(=O)N[C@@H](Cc1ccc(O)cc1)C(=O)N[C@@H](CC(N)=O)C(=O)N[C@@H](Cc1c[nH]c2ccccc12)C(=O)N[C@@H](CC(N)=O)C(=O)N[C@@H](CO)C(=O)N[C@@H](Cc1ccccc1)C(=O)NCc1cn([C@@H](CC(C)C)C(=O)N[C@@H](CCCNC(=N)N)C(=O)N[C@@H](Cc2ccc(O)cc2)C(N)=O)nn1` [Compound C2, Ac-Tyr-Asn-Trp-Asn-Ser-Phe-GlyΨ[Tz]Leu-Arg-Tyr-NH2] (HELM PEPTIDE1{[ac].Y.N.W.N.S.F.[CC(C)C[C@@H](C(=O)[*:2])n1cc(CN[*:1])nn1].R.Y.[am]}$$$$V2.0), the “lifetime in ovine serum (in words)” value [1] is reported as “clearly prolonged in comparison with that of the comparative peptide compound Comp.3”, the remaining at 3 h, 50 μM ([1]; serum) is reported as 46% and the “total increase in the plasma LH concentration (AUC) over 9 hours” value (plasma LH concentration; 2nd experiment, ewes in the anestrus period, 5 nmol/ewe intravenous, FIG. 7) is reported as “significantly more active than the comparative compounds”. For the same compound, the “duration of action (LH concentration over time)” value (plasma LH concentration; [3]) was “sustained for longer over time than the comparative compounds Comp.1 and Comp.3”.

In the case of `CNC(=N)NCCC[C@H](NC(=O)[C@H](CC(C)C)n1cc(CNC(=O)[C@H](Cc2ccccc2)NC(=O)[C@H](CO)NC(=O)[C@H](CC(N)=O)NC(=O)[C@H](CCCCNC(C)=O)NC(=O)[C@H](CC(N)=O)NC(=O)[C@H](Cc2ccc(O)cc2)NC(C)=O)nn1)C(=O)N[C@@H](Cc1ccc(O)cc1)C(N)=O` [Compound C4, Ac-Tyr-Asn-Lys(Ac)-Asn-Ser-Phe-GlyΨ[Tz]Leu-Arg(Me)-Tyr-NH2] (HELM PEPTIDE1{[ac].Y.N.K.N.S.F.[CC(C)C[C@@H](C(=O)[*:2])n1cc(CN[*:1])nn1].[CNC(=N)NCCC[C@H](N[*:1])C(=O)[*:2]].Y.[am]}|PEPTIDE2{[ac]}$PEPTIDE1,PEPTIDE2,4:R3-1:R2$$$V2.0), the remaining at 3 h, 50 μM ([1]; serum) is reported as 59% and the “increase … (% of Comp.1 maximum stimulation)” value (plasma LH concentration; [2]) is reported as “more active than the comparative compounds Comp.1 and Comp.3”.

With `CNC(=N)NCCC[C@H](NC(=O)[C@H](CC(C)C)n1cc(CNC(=O)[C@H](Cc2ccccc2)NC(=O)[C@@H](NC(=O)[C@H](CC(N)=O)NC(=O)[C@@H](Cc2c[nH]c3ccccc23)NC(=O)[C@@H](Cc2ccc(O)cc2)NC(C)=O)[C@@H](C)O)nn1)C(=O)N[C@@H](Cc1c[nH]c2ccccc12)C(N)=O` [Compound C6, Ac-DTyr-DTrp-Asn-Thr-Phe-GlyΨ[Tz]Leu-Arg(Me)-Trp-NH2] (HELM PEPTIDE1{[ac].[dY].[dW].N.T.F.[CC(C)C[C@@H](C(=O)[*:2])n1cc(CN[*:1])nn1].[CNC(=N)NCCC[C@H](N[*:1])C(=O)[*:2]].W.[am]}$$$$V2.0) the remaining at 3 h, 50 μM ([1]; serum) was 50%, the EC50 (human KISS1R receptor; HEK293A cells expressing human KISS1R, Fluo-4NW, read-out: EC50, intracellular calcium mobilization of cells expressing human KISS1R (Table 2)) was 0.01 nM and the “increase … (% of Comp.1 maximum stimulation)” value (plasma LH concentration; [2]) was “more active than the comparative compounds Comp.1 and Comp.3”.

In the case of `CCCCCCCCCCCCCCCC(=O)N[C@@H](CCC(=O)NCCCC[C@H](NC(=O)[C@H](Cc1ccc(O)cc1)NC(C)=O)C(=O)N[C@@H](Cc1c[nH]c2ccccc12)C(=O)N[C@@H](CC(N)=O)C(=O)N[C@@H](CO)C(=O)N[C@@H](Cc1ccccc1)C(=O)NCc1cn([C@@H](CC(C)C)C(=O)N[C@@H](CCCNC(=N)N)C(=O)N[C@@H](Cc2ccc(O)cc2)C(N)=O)nn1)C(=O)O` [Compound C8, Ac-Tyr-Lys(γ-(N-hexadecanoyl-Glu-OH))-Trp-Asn-Ser-Phe-GlyΨ[Tz]Leu-Arg-Tyr-NH2] (HELM PEPTIDE1{[ac].Y.K.W.N.S.F.[CC(C)C[C@@H](C(=O)[*:2])n1cc(CN[*:1])nn1].R.Y.[am]}|PEPTIDE2{[CCCCCCCCCCCCCCCC(=O)[*:2]].[gGlu]}$PEPTIDE1,PEPTIDE2,3:R3-2:R2$$$V2.0), the “duration of action (LH concentration over time)” value (plasma LH concentration; 3rd experiment, ewes in the anestrus period, 1, 5 and 15 nmol/ewe intravenous, FIGS. 8a, 8b) is reported as “even further sustained over time, and very significantly, than the compound C2”, the “LH secretion (AUC)” value (plasma LH concentration; 3rd experiment, ewes in the anestrus period, 1, 5 and 15 nmol/ewe intravenous, FIGS. 9a, 9b) is reported as “even more active than the compound C2” and the “LH secretion into the plasma after intramuscular injection” value (plasma LH concentration; 4th experiment, ewes in the estrus period, 15 nmol/ewe intramuscular versus intravenous, FIG. 10) is reported as “also effective, in vivo, by intramuscular injection”.

With “Ac-YNWNSFGLRY-NH2 [Comp. 3, reference compound]” the remaining at 3 h, 50 μM ([1]; ovine serum, 39° C., 50 μM, 3 h, % of the area of the HPLC peak at time t = 0, read-out: % of peptide intact after 3 h of incubation in the serum) was 11%, the “human KISS1R-stimulating power (in words)” value (human KISS1R receptor; calcium mobilization, compared with Comp.1) was “more powerful than Comp.1 (mKP10) in vitro” and the “efficiency and duration of the elevation of the plasma LH concentration” value (plasma LH concentration; 1st experiment, ewes in the anestrus period, 5 nmol/ewe intravenous, FIG. 3, versus Comp.1) was “only minimally increases”.

For “KP10: decapeptide kisspeptin-10, endogenous KISS1R ligand; species form not stated for the cited ewe studies”, the “induction of an LH peak” value (LH peak / ovulation; [4]) is listed as “capable of inducing an LH peak”, the synchronization of ovulations (LH peak / ovulation; [4]) is listed as “synchronized to within one hour” and the “time from LH peak to ovulations” value (LH peak / ovulation; [4]) is listed as 21 h. The “reactivation of the gonadotropic axis and ovulation” value (LH peak / ovulation; prolonged infusion, period of sexual rest (seasonal anestrus)) was “capable of reactivating the gonadotropic axis and inducing ovulation”.
